Laboratory results taken from publication PMC3590450, “Analysis of substrate specificity and cyclin Y binding of PCTAIRE-1 kinase” (Cellular Signalling, 2012).
Where “and” joins values, the source holds several entries; their conditions need not be identical. Equal entries are not always repeated.

How the values were obtained:
CDK2–cyclin A2 = target: T1, CDK2–cyclin A2 (Homo sapiens, UniProt P20248+P24941); test: In vitro phosphotransferase (kinase) assay of rCDK2–cyclin A2 on peptide substrates; assay type: biochemical; conditions: for CDK2-cyclin A2 Vmax: Fig. 2B table
T1 construct: made in house; host or cells: Escherichia coli
Method: PCTAIRE-1C-16 (sc-174) and PCTAIRE-1G6.1 (sc-53410) antibodies were from Santa Cruz Biotechnology. Cyclin Y antibody was from Proteintech. HA.11 (16B2) antibody was from Covance Research Products. The following antibodies were raised in sheep by the Division of Signal Transduction Therapy (DSTT, University of Dundee) against the indicated immunogens: PCTAIRE-1 (S552C, full length human 6×his-PCTAIRE-1), cyclin Y (S206D, full length human GST-cyclin Y). rCDK2–cyclin A2 was prepared by overexpression in Escherichia coli as previously described. Peptide substrates for kinase assays were synthesised by GL Biochem, and the peptide library was synthesised by Anaspec, Inc. [γ-^32P] ATP was from PerkinElmer. HRP-conjugated secondary antibodies were from Jackson Immunoresearch. Unless otherwise indicated all other reagents were from Sigma.
(§1) Fig. 1 Determination of PCTAIRE-1 optimal substrate motif. […] (B) GST–PCTAIRE-1 WT/KD was prepared as described in (A) and the optimal substrate motif determined by positional scanning peptide library screening (PSPL) as described in Materials and methods. (C) The activity of GST–PCTAIRE-1 (1 μg) and CDK2–cyclin A2 (10 ng) was assayed against a panel of CDK-tide derivatives (concentration fixed at 250 μM) based on the results of the degenerate library screen (modifications are underlined). Results are expressed as mean ± SEM and are representative of 3 independent experiments.
(§2) Purified rPCTAIRE-1, rCDK2–cyclin A2 or immune complexes isolated from cell/tissue lysates were assayed for phosphotransferase activity in a final assay volume of 50 μl containing 50 mM HEPES pH 7.5, 0.1 mM EGTA, 10 mM Mg(OAc)2, 0.1 mM [γ-^32P] ATP (300 CPM pmol^− 1), 1 mM DTT and the indicated concentrations of peptide substrate. Reactions were incubated at 30 °C and terminated by spotting onto P81 paper and immersion in 75 mM H3PO4. P81 filters were washed 3 × 10 min with H3PO4, rinsed with acetone, air-dried and incorporation of [γ-^32P] determined by Cherenkov counting. Results are expressed in U mg^− 1, where 1 U is defined as the incorporation of 1 nmol phosphate.min^− 1.
(§3) Fig. 2 Optimisation of PCTAIRE-1 substrate peptide. The in vitro phosphotransferase activity of 1 μg GST–PCTAIRE-1 (A) and 10 ng CDK2–cyclin A2 (B) was determined using a panel of CDK-tide derivatives (modifications from the parental peptide are underlined). Peptide conc. was varied over the range 0 > 100 μM and substrate saturation curves were fitted by non-linear regression to the Michaelis–Menten model. Fitted parameters [Km (μM) and Vmax (mU mg^− 1)] are listed in the adjoining table. (C) Based on the CDK-tide optimisation, derivatives of NSF-tide were synthesised (modifications underlined) and assayed for PCTAIRE-1 activity as described in (A + B). 100% GST–PCTAIRE-1 = 164 mU mg^− 1 and 100% CDK2–[…] = 940 U mg^− 1. (D) PCTAIRE-1 was immunoprecipitated from 2 mg of HEK293 lysate and kinase activity determined using 250 μM CDK-tide or the optimised substrate, PKS*PKARKKL (PCTAIRE-tide) as described in Materials and methods. Results are expressed as mean ± SEM and are representative of 3 independent experiments. […]

GST–PCTAIRE-1 [1] = target: T2, GST–PCTAIRE-1 (Homo sapiens, UniProt Q00536); test: In vitro phosphotransferase (kinase) assay of purified GST–PCTAIRE-1 on peptide substrates; assay type: biochemical; conditions: 1 μg GST–PCTAIRE-1, peptide 0-100 μM, mean ± SEM
T2 construct: made in house; host or cells: HEK293 cells, transient transfection with pEBG6P
Method: (§4) HEK293 cells were transfected with pEBG6P encoding GST-tagged human PCTAIRE-1 and harvested 36 h later as described above. GST–PCTAIRE-1 was isolated by batch-wise purification using Glutathione-Sepharose 4B. Briefly, lysates were incubated with equilibrated resin for 1 h at 4 °C, washed extensively with lysis buffer and eluted with 20 mM reduced glutathione in 50 mM Tris–HCl pH 8, 0.27 M sucrose, 0.1 mM EGTA and 1 mM DTT. Protein concentration was estimated by densitometry of Coomassie-stained gels using BSA standards. PCTAIRE-1 preparations were snap-frozen in N2(l) and stored at − 80 °C.
as §1, §2, §3

GST–PCTAIRE-1 [2] = test: as above; assay type: biochemical, human; conditions: GST–PCTAIRE-1 from HEK293 vs CDK2–cyclin A2 from E. coli; data not shown
Method: as §4, §1, §2, §3

FLAG-WT–PCTAIRE-1 = FLAG-WT–PCTAIRE-1 (human, UniProt Q00536-1 1-496); test: cell-based or functional assay
[3] = CDK-tide derivatives, 10 ng CDK2–cyclin A2, peptide 0-100 μM, Michaelis–Menten fit, mean ± SEM
[4] = Fig. 2B, CDK-tide derivatives, 10 ng CDK2–cyclin A2, peptide 0-100 μM, Michaelis–Menten fit, 0.1 mM [γ-32P]ATP, 30 °C, mean ± SEM, representative of 3 independent experiments
[5] = Fig. 2A, CDK-tide derivatives, Michaelis–Menten fit, 0.1 mM [γ-32P]ATP, 30 °C, 1 U = 1 nmol phosphate min-1
[6] = Fig. 2A, CDK-tide derivatives, Michaelis–Menten non-linear regression, 0.1 mM [γ-32P]ATP, 30 °C, P81 paper, representative of 3 independent experiments

T2 sequence (Q00536 whole entry): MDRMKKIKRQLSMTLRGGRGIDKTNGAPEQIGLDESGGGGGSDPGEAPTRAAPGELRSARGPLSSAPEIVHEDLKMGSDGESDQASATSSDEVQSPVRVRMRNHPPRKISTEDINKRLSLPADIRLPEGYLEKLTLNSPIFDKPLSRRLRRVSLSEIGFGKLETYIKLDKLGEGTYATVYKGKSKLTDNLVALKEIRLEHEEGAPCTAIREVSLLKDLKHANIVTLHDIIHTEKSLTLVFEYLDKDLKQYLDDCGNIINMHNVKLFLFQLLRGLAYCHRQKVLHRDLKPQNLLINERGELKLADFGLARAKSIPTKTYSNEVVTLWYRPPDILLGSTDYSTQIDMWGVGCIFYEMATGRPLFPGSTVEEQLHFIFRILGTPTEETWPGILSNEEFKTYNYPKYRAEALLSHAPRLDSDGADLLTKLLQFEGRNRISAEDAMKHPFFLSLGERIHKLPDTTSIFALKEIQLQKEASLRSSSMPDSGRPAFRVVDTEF
FLAG-WT–PCTAIRE-1, sequence (Q00536 whole entry): as above

Question: For “PKTPKKAKKL [generic CDK substrate peptide … derived from CDK phosphorylation sites of histone H1]”, which “CDK2-cyclin A2 Vmax” value (CDK2–cyclin A2; [3]) is on record?
Answer: 1100 ± 54 U.mg^-1

Question: What about the Km (CDK2–cyclin A2; [4]) of the same molecule?
Answer: ~20 µM and 19 µM

Question: What about the “CDK2–cyclin A2 Vmax as stated in text” value (CDK2–cyclin A2; running text on Fig. 2B, one range stated for TPKKR, SPKKA and TPKKA together) of the same molecule?
Answer: 1100–1500 mU mg^− 1

Question: And the “GST-PCTAIRE-1 Vmax” value (GST–PCTAIRE-1 [1]; [5])?
Answer: 71 ± 7 mU.mg^-1

Question: What about the Km (GST–PCTAIRE-1 [1]; [6]) of the same molecule?
Answer: 23 ± 6 µM

Question: And the “Specific activity of PCTAIRE-1 towards the peptide, fold lower than that of CDK2–cyclin A2” value (GST–PCTAIRE-1 [2])?
Answer: > 2000 fold

Question: How did the “CDK2-cyclin A2 Vmax” value (CDK2–cyclin A2; [3]) turn out when “PKSPKARKKL [optimal PCTAIRE-1 substrate peptide …, modified from the parental CDK substrate peptide]” was run?
Answer: No fit

Question: And the “CDK2-cyclin A2 Km” value (CDK2–cyclin A2; [4])?
Answer: No fit

Question: And the “GST-PCTAIRE-1 Vmax” value (GST–PCTAIRE-1 [1]; [5])?
Answer: 550 ± 19 mU.mg^-1

Question: What about the “GST-PCTAIRE-1 Vmax” value (GST–PCTAIRE-1 [1]; Fig. 2A, CDK-tide derivatives, Michaelis–Menten fit, 0.1 mM [γ-32P]ATP, 30 °C, 1 U = 1 nmol phosphate min-1, listed as PKSPKARKKL) of the same molecule?
Answer: ~ 550 mU.mg^-1

Question: What about the Km (GST–PCTAIRE-1 [1]; [6]) of the same molecule?
Answer: 4 ± 1 µM

Question: What about the Km (GST–PCTAIRE-1 [1]; Fig. 2A, CDK-tide derivatives, Michaelis–Menten non-linear regression, 0.1 mM [γ-32P]ATP, 30 °C, P81 paper, representative of 3 independent experiments, listed as PKSPKARKKL) of the same molecule?
Answer: ~4 µM

Question: Which Km (GST–PCTAIRE-1 [1]; Fig. 2C, NSF-tide derivatives, Michaelis–Menten fit, 0.1 mM [γ-32P]ATP, 30 °C) does the source give for “FIKICSPDKMIGRRR [peptide around Ser569 of human NSF with three extra C-terminal Arg]” here?
Answer: 15 ± 6 µM

Question: And the “GST-PCTAIRE-1 Vmax” value (GST–PCTAIRE-1 [1]; Fig. 2C, NSF-tide derivatives, Michaelis–Menten fit)?
Answer: 34 ± 4 mU.mg^-1

B1: HA-cyclin Y (natural protein, human, UniProt Q8ND76-1 1-341, looked up)
chain: MGNTTSCCVSSSPKLRRNAHSRLESYRPDTDLSREDTGCNLQHISDRENIDDLNMEFNPSDHPRASTIFLSKSQTDVREKRKSLFINHHPPGQIARKYSSCSTIFLDDSTVSQPNLKYTIKCVALAIYYHIKNRDPDGRMLLDIFDENLHPLSKSEVPPDYDKHNPEQKQIYRFVRTLFSAAQLTAECAIVTLVYLERLLTYAEIDICPANWKRIVLGAILLASKVWDDQAVWNVDYCQILKDITVEDMNELERQFLELLQFNINVPSSVYAKYYFDLRSLAEANNLSFPLEPLSRERAHKLEAISRLCEDKYKDLRRSARKRSASADNLTLPRWSPAIIS
Question: How did the “PCTAIRE-1 kinase activity of the immunoprecipitates towards 50 μM PCTAIRE-tide, with co-expressed cyclin Y against without” value (FLAG-WT–PCTAIRE-1) turn out when B1 was run?
Answer: > 100 fold
